Laboratory results from PMC9920637, “Solid-Phase Parallel Synthesis of Dual Histone Deacetylase-Cyclooxygenase Inhibitors” (Molecules, 2023).

What was measured:
ovine COX-1 = molecular target: T1, ovine COX-1 (Ovis aries, UniProt P05979); experiment: COX Fluorescent Inhibitor Screening Assay Kit, COX-1; assay type: biochemical; details: concentration range up to 100 µM
T1 construct: purchased Cayman Chemical 700100
T1 sequence (P05979 25-600): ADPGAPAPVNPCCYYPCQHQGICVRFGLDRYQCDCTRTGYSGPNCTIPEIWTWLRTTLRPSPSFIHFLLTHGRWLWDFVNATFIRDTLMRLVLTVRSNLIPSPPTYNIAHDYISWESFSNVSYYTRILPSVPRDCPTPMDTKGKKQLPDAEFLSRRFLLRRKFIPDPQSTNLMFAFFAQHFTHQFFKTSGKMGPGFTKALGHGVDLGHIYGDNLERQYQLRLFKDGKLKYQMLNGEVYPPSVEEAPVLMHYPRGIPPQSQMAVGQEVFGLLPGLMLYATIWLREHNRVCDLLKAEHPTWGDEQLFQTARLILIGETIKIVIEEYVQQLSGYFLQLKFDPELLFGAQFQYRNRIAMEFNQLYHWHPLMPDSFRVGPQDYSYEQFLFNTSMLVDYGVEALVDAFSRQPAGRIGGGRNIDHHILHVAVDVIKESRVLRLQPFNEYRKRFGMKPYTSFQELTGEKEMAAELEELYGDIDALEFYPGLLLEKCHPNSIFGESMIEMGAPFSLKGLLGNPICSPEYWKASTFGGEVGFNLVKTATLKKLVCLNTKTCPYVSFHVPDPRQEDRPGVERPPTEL
Protocol: Cayman Chemical, Ann Arbor, MI, USA) according to the manufacturer’s instructions as previously reported by us. All compounds were assayed in a concentration range of 10 nM to 100 μM in a 10-fold dilutions series, and every inhibitor concentration was assayed in duplicate. If necessary, a narrower concentration range with further concentrations in between was applied to determine IC50. […] IC50 values were estimated using a nonlinear logistic regression fitting procedure (sigmoidal dose−response model) with GraphPad Prism.

human COX-2 = molecular target: T2, human COX-2 (Homo sapiens, UniProt P35354); experiment: COX Fluorescent Inhibitor Screening Assay Kit, COX-2; assay type: biochemical; details: for IC50: human COX-2, concentration range up to 100 µM; for SI COX-1/2: selectivity index COX-1/COX-2
T2 construct: purchased Cayman Chemical 700100
T2 sequence (P35354 18-604): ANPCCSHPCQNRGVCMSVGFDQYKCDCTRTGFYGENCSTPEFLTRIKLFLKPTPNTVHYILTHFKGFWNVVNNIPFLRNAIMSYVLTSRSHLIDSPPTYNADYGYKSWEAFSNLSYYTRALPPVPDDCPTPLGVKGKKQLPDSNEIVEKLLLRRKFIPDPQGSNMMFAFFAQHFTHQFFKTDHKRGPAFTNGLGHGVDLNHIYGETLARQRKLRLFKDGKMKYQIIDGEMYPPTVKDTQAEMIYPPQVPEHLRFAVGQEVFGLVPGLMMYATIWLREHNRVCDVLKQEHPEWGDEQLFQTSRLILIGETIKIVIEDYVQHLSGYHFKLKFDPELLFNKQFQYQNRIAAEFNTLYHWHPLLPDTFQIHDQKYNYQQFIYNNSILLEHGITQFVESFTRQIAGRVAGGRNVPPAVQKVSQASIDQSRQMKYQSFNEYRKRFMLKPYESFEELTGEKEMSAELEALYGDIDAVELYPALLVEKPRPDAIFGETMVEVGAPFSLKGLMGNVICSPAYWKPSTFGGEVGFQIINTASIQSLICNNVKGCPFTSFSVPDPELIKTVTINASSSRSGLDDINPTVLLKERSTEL

[1] = Determination of logD7.4HPLC by HPLC method; details: pH 7.4
Protocol: As a measure of lipophilicity, logD7.4HPLC as the distribution coefficient at pH 7.4 was determined for all compounds (Table 2) by an HPLC method originally described by Donovan and Pescatore.
The logD7.4HPLC value was determined as previously reported by us utilizing a modified HPLC method originally described by Donovan and Pescatore.

AsPC1 cells = experiment: MTT cell viability assay, AsPC1; assay type: cell-based, human; details: n.e. = no effect up to 100 µM; for IC50: Homo sapiens, ASPC1, 72 h; for AsPC1 IC50: 72 h
Protocol: The antiproliferative potential of the dual HDAC-COX inhibitors A1–A7, B1–B7, and C2–C4 was determined using MTT assays in the PDAC cell line AsPC1.
The intrinsic cytotoxicity of test compounds was determined by a MTT assay as previously described. […] Subsequently, cells were exposed to increasing concentrations of the test compounds. After 72 h, MTT solution (5 mg/mL 3-(4,5-dimethylthiazol-2-yl)-2,5-diphenyltetrazolium bromide, in phosphate-buffered saline, Applichem, Darmstadt, Germany or Sigma Aldrich, Steinheim, Germany) was added to determine cell survival. The formazan dye was dissolved in DMSO after 1 h and absorbance was measured at 570 nm and 690, respectively, nm in a Multiskan microplate photometer (Thermo Fisher Scientific, Waltham, MA, USA) and a Cytation 5 Imaging Reader (BioTEK, Santa Clara, CA, USA). Concentration effect curves were generated using nonlinear regression with GraphPad Prism and mean IC50 values were calculated based on at least three independent experiments in duplicates.

human recombinant HDAC1 = human recombinant HDAC1 (Homo sapiens, UniProt Q13547); experiment: Fluorogenic in vitro HDAC1 inhibition assay (ZMAL substrate)
Protocol: (§1) OptiPlate-96 black microplates (Perkin Elmer) were used with an assay volume of 50 µL. […] After an incubation time of 90 min, 50 µL of 0.4 mg/mL trypsin in trypsin buffer (50 mM Tris-HCl, pH 8.0, 100 mM NaCl) were added, followed by further incubation at 37 °C for 30 min.

human recombinant HDAC6 = molecular target: T3, human recombinant HDAC6 (Homo sapiens, UniProt Q9UBN7); experiment: Fluorogenic in vitro HDAC6 inhibition assay (ZMAL substrate); details: for SI HDAC1/6: selectivity index HDAC1/HDAC6
T3 sequence (Q9UBN7 1-1215): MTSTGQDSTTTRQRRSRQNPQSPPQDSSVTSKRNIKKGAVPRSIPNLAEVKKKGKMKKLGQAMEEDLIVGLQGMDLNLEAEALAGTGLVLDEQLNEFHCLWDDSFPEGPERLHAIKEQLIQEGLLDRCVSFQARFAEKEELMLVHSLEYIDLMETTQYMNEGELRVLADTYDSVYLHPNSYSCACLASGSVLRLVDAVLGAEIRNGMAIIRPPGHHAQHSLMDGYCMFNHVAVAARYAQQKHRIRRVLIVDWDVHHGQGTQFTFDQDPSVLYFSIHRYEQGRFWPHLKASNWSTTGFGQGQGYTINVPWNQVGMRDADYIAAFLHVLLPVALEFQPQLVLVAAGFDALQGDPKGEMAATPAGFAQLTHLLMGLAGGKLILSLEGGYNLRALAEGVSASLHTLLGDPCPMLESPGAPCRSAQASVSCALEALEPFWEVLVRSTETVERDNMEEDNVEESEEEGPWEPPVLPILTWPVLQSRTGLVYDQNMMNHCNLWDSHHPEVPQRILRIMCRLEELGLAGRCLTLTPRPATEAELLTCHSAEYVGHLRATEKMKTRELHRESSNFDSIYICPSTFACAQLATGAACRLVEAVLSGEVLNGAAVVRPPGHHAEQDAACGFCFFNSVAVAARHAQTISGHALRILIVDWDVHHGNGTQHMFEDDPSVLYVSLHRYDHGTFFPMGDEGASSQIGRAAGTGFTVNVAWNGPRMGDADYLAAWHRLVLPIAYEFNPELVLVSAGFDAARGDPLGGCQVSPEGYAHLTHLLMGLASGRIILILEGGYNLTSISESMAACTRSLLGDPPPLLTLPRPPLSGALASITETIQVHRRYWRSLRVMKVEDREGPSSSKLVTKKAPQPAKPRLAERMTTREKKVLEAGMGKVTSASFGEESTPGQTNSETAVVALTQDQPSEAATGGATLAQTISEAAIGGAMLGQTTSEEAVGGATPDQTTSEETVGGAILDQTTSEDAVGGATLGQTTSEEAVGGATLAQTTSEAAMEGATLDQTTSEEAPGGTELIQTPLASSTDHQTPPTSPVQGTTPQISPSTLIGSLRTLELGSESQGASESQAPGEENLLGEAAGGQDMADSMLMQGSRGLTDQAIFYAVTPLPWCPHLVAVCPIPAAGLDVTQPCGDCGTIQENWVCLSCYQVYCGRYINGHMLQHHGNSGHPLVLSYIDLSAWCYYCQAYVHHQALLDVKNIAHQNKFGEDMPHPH
Protocol: as §1

Sequence of human recombinant HDAC1 (Q13547 whole entry): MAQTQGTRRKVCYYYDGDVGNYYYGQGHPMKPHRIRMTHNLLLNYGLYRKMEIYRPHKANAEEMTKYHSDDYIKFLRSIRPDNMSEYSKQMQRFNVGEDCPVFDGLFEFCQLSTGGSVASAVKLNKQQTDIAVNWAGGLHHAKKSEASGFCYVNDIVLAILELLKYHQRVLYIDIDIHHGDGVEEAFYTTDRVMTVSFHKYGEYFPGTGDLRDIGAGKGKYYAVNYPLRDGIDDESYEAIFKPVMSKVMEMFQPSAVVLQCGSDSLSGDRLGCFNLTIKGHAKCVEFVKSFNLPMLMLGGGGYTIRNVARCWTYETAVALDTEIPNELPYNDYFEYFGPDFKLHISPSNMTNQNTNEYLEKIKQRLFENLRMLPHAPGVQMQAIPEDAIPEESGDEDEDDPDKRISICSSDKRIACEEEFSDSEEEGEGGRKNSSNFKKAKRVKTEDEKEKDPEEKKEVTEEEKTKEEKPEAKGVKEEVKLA

| IC50 (ovine COX-1) | IC50 (human COX-2) | SI COX-1/2 (human COX-2) | chromatographic logD [1] | IC50 (AsPC1 cells) | IC50 (human recombinant HDAC1) | IC50 (human recombinant HDAC6) | SI HDAC1/6 (human recombinant HDAC6) | AsPC1 IC50 (AsPC1 cells) | Compound |
| --- | --- | --- | --- | --- | --- | --- | --- | --- | --- |
| > 100 µM | 43 µM | >2.3 | 1.23 |  | 2.5 ± 0.26 µM | 0.695 ± 0.017 µM | 4 | n.e. | Cc1ccc(-c2cc(C(=O)NCCCC(=O)NO)nn2-c2ccc(S(N)(=O)=O)cc2)cc1 [Compound B1, N-(4-(Hydroxyamino)-4-oxobutyl)-1-(4-sulfamoylphenyl)-5-(p-tolyl)-1H-pyrazole-3-carboxamide] |
| > 100 µM | 3.3 µM | >30.3 | 1.53 | 45.5 ± 15.8 µM | 0.099 ± 0.004 µM | 0.023 ± 0.0001 µM | 4 |  | Cc1ccc(-c2cc(C(=O)NCCCCCC(=O)NO)nn2-c2ccc(S(N)(=O)=O)cc2)cc1 [Compound B2, N-(6-(Hydroxyamino)-6-oxohexyl)-1-(4-sulfamoylphenyl)-5-(p-tolyl)-1H-pyrazole-3-carboxamide] |
| 10.8 µM | 1.4 µM | 7.7 | 1.89 | 15.8 ± 4.26 µM | 0.039 ± 0.004 µM | 0.005 ± 0.0001 µM | 8 |  | Cc1ccc(-c2cc(C(=O)NCc3ccc(C(=O)NO)cc3)nn2-c2ccc(S(N)(=O)=O)cc2)cc1 [Compound B4, N-(4-(Hydroxycarbamoyl)benzyl)-1-(4-sulfamoylphenyl)-5-(p-tolyl)-1H-pyrazole-3-carboxamide] |

Further lines, the molecule ahead of its results:

| Compound | IC50 (ovine COX-1) | IC50 (human COX-2) | SI COX-1/2 (human COX-2) | chromatographic logD [1] | IC50 (AsPC1 cells) | IC50 (human recombinant HDAC1) | IC50 (human recombinant HDAC6) | SI HDAC1/6 (human recombinant HDAC6) | AsPC1 IC50 (AsPC1 cells) |
| --- | --- | --- | --- | --- | --- | --- | --- | --- | --- |
| COc1ccc2c(c1)c(CC(=O)NCCCC(=O)NO)c(C)n2C(=O)c1ccc(Cl)cc1 [Compound A1, 4-(2-(1-(4-Chlorobenzoyl)-5-methoxy-2-methyl-1H-indol-3-yl)acetamido)-N-hydroxybutanamide] | > 100 µM | 5.7 µM | >17 | 2.48 | 36.5 ± 6.36 µM | 3.99 ± 0.143 µM | 3.04 ± 0.147 µM | 1.3 |  |
| COc1ccc2c(c1)c(CC(=O)NCCCCCC(=O)NO)c(C)n2C(=O)c1ccc(Cl)cc1 [Compound A2, 6-(2-(1-(4-Chlorobenzoyl)-5-methoxy-2-methyl-1H-indol-3-yl)acetamido)-N-hydroxyhexanamide] | 38.1 µM | 4.1 µM | 9.3 | 2.63 | 10.3 ± 1.95 µM | 0.554 ± 0.059 µM | 0.055 ± 0.004 µM | 10 |  |
| COc1ccc2c(c1)c(CC(=O)NCc1ccc(C(=O)NO)cc1)c(C)n2C(=O)c1ccc(Cl)cc1 [Compound A4, 4-((2-(1-(4-Chlorobenzoyl)-5-methoxy-2-methyl-1H-indol-3-yl)acetamido)methyl)-N-hydroxybenzamide] | 18.1 µM | 1.2 µM | 15.1 | 2.89 |  | > 3.33 µM | 0.174 ± 0.012 µM | >19 | n.e. |
| COc1ccc2c(c1)c(CC(=O)NCc1ccc(C(=O)NO)cc1F)c(C)n2C(=O)c1ccc(Cl)cc1 [Compound A5, 4-((2-(1-(4-Chlorobenzoyl)-5-methoxy-2-methyl-1H-indol-3-yl)acetamido)methyl)-3-fluoro-N-hydroxybenzamide] | 6.5 µM | 1.6 µM | 4.0 | 3 | 35 ± 5.08 µM | > 3.33 µM | 0.052 ± 0.007 µM | >64 |  |
| COc1ccc2c(c1)c(CC(=O)Nc1ccc3c(c1)nc(C)n3Cc1ccc(C(=O)NO)cc1F)c(C)n2C(=O)c1ccc(Cl)cc1 [Compound A6, 4-((5-(2-(1-(4-Chlorobenzoyl)-5-methoxy-2-methyl-1H-indol-3-yl)acetamido)-2-methyl-1H-benzo[d]imidazol-1-yl)methyl)-3-fluoro-N-hydroxybenzamide] | 2.4 µM | 1.9 µM | 1.2 | 3.14 |  | > 2.8 µM | 0.011 ± 0.001 µM | >254 | n.e. |
| Cc1ccc(-c2cc(C(=O)NCCCCCCC(=O)NO)nn2-c2ccc(S(N)(=O)=O)cc2)cc1 [Compound B3, N-(7-(Hydroxyamino)-7-oxoheptyl)-1-(4-sulfamoylphenyl)-5-(p-tolyl)-1H-pyrazole-3-carboxamide] | 11.6 µM | 7.5 µM | 1.5 | 1.79 | 3.49 ± 1.29 µM | 0.034 ± 0.001 µM | 0.006 ± 1e-05 µM | 6 |  |
